Laboratory results reported in patent US11339142B2, “Di-substituted pyrazole compounds for the treatment of diseases” (FGH BIOTECH, INC., priority 2016, dated 2022).
pIC50: −log10 of the molar value.

Tests used:
PCSK9 expression = assay: Quantitative PCR (qPCR) inhibition assay, PCSK9 mRNA expression in Hep G2 cells; type: cell-based; conditions: Homo sapiens, HepG2 cells, 24 hours incubation, mRNA by qPCR; for inhibition at 0.32 µM: 320 nM, read-out: PCSK9 Inhibition Percentage (%) at 320 nM
Procedure: Hep G2 cells were obtained from ATCC and grown in DMEM supplemented with 5% FBS in a 5% CO2 incubator at 37° C. For the assay the cells were plated in 24 well plates at a concentration of 100,000 cells/well in DMEM with 5% FBS. The compounds were serially diluted in DMSO from 0.1 to 20 mM and then diluted 1:1000 in growth medium. The medium was added to the cells in duplicate 24 hours after plating. After 24 hours of incubation the RNA was isolated from the cells using the illustra RNAspin Mini kit (GE Healthcare). For the quantitative PCR the RNA was analyzed using the Power SYBR® Green PCR Master Mix (Applied Biosystems) and gene specific primers. The reaction was run on a StepOnePlus Real-Time PCR System (Thermo Fisher Scientific) and the instrument software was used to determine the Ct values. The fold change of mRNA expression relative to the vehicle control was calculated. Primer sequence was as follows: PCSK9, 5′-[…]-3′/5′-[…]-3′.
(§1) All data for Biological Examples 1a and 1b were measured in HepG2 cells. % inhibition of SCD1 expression, % inhibition of PCSK9 expression, and PCSK9 IC50 data are provided in Table 1. NA means the compound was not active at the concentration tested.

SCD1 expression = assay: Quantitative PCR (qPCR) inhibition assay, SCD1 mRNA expression in Hep G2 cells; type: cell-based; conditions: Homo sapiens, HepG2 cells, 24 hours incubation, mRNA by qPCR, read-out: SCD1 Inhibition Percentage (%) at 1 μM
Procedure: Hep G2 cells were obtained from ATCC and grown in DMEM supplemented with 10% FBS in a 5% CO2 incubator at 37° C. For the assay the cells were plated in 96 well plates at a concentration of 75,000 cells/well in DMEM with 5% FBS. The compounds were serially diluted in DMSO from 30 to 0.1 mM and then diluted 1:1000 in growth medium. The medium was added to the cells in duplicate 24 hours after plating. After 24 hours of incubation the RNA was isolated from the cells using the RNAqueous®-96 Total RNA Isolation Kit (Ambion). The eluted RNA was reverse transcribed using the Cells-to-Ct kit reverse transcriptase (Ambion). For the quantitative PCR the cDNA was analyzed using the Power SYBR® Green PCR Master Mix (Applied Biosystems) and gene specific primers. The reaction was run on an ABI7300 thermocycler and the instrument software was used to determine the Ct values. The fold change of mRNA expression relative to the vehicle control was calculated using the method by Livak. Primer sequence was as follows: SCD1, 5′-[…]-3′/5′-[…]-3′.
as §1

Structure (SMILES) | inhibition at 0.32 µM (PCSK9 expression) [%] | inhibition at 1 µM (SCD1 expression) [%] | pIC50 (PCSK9 expression)
CCCn1cc(-n2cc(-c3ccc(S(=O)(=O)CC(C)C)cc3Cl)cn2)ccc1=O [Example 18] | 10 to 40 | 10 to 40 | 
CCCn1cc(-n2cc(-c3ccc(OC(C)CC)nc3C)cn2)ccc1=O (stereo not shown) [Example 3] | 10 to 40 | ≥ 40 | 
CCCn1cc(-n2cc(-c3ccc(OCC(C)C)nc3C)cn2)ccc1=O [Example 5] | ≥ 40 | ≥ 40 | 
CCCn1cc(-n2cc(-c3ccc(S(=O)(=O)C4CCC4)cc3F)cn2)ccc1=O [Example 22] |  | ≥ 40 | 6.22 to 6.82
CCCn1cc(-n2cc(-c3ccc(S(=O)(=O)C4CCC4)cc3Cl)cn2)ccc1=O [Example 23] |  | ≥ 40 | ≥ 6.82
